From patent publication US20140262858A1, “PACKAGING FOR ALITRETINOIN” (RANBAXY LABORATORIES LIMITED, priority 2011, published 2014)
Several values for one entry are separate records, joined by “and”; a condition that tells them apart may be missing. Identical values can stand only once.

How the values were obtained:
[1] = Stability study of alitretinoin in vacuum-sealed pack in the absence of oxygen absorber and silica gel desiccant (HPLC impurities); format: physicochemical; conditions: Initial; no oxygen absorber, no silica gel desiccant
Method: (§1) Stability studies of alitretinoin were conducted by loading alitretinoin samples at various stability conditions, for example, at 25±2° C./60±5% relative humidity (RH) and 40±2° C./75±5% RH in the absence or presence of an oxygen absorber and a silica desiccant for 1 month, 2 months, 3 months, or 6 months. The stability studies were performed on a stability incubator (for accelerated stability studies, Hotpack was used and for real time stability studies, NuAire® was used). The degradation products were identified using an Agilent® 1100 series HPLC system.
Alitretinoin was packed in a LDPE bag. The bag was twisted and tied with a plastic fastener under nitrogen. The LDPE bag was placed into a middle bag of polyester/LDPE and vacuum was applied to the middle bag and then it was heat sealed. The sealed middle bag was packed into a polyester/aluminum/polyester/LDPE bag. Vacuum was applied to this bag and then it was heat sealed. The vacuum-sealed pack was loaded on stability at stations 40±2° C. and 75±5% RH (accelerated) and 25±2° C. and 60±5% RH.

[2] = Stability study of alitretinoin at 25±2° C./60±5% RH in vacuum-sealed pack in the presence of oxygen absorber (Stabilox) and silica gel desiccant; format: physicochemical; parameters: 4-Hydroxy alitretinoin impurity / 5,6-Epoxy alitretinoin impurity / Total related substances / 4-Oxo-alitretinoin impurity: unit not given here; conditions: for 4-Hydroxy alitretinoin impurity / 4-Oxo-alitretinoin impurity / 5,6-Epoxy alitretinoin impurity / Total related substances: with oxygen absorber and silica gel desiccant
Method: as §1
Alitretinoin was packed in a LDPE bag. The bag was twisted and tied with a plastic fastener under nitrogen. The LDPE bag was placed into a middle bag of polyester/LDPE along with an oxygen absorber. A vacuum was applied to the middle bag and then it was heat sealed. The sealed middle bag was packed into a polyester/aluminum/polyester/LDPE bag along with silica gel as a desiccant. Vacuum was applied to this bag and it was then heat sealed. The vacuum-sealed pack was loaded on stability at 25±2° C. and 60±5% RH.

[3] = Stability study of alitretinoin at 40±2° C./75±5% RH in vacuum-sealed pack in the presence of oxygen absorber (Stabilox) and silica gel desiccant; format: physicochemical; parameters: 4-Hydroxy alitretinoin impurity / 5,6-Epoxy alitretinoin impurity / Total related substances / 4-Oxo-alitretinoin impurity: unit not given here; conditions: for 4-Oxo-alitretinoin impurity / 5,6-Epoxy alitretinoin impurity / Total related substances / 4-Hydroxy alitretinoin impurity: with oxygen absorber and silica gel desiccant
Method: as §1
Alitretinoin was packed in a LDPE bag; the bag was twisted and tied with a plastic fastener under nitrogen. It was placed into a middle bag of polyester/LDPE along with an oxygen absorber. Vacuum was applied to the middle bag and then it was heat sealed. This sealed middle bag was packed into a polyester/aluminum/polyester/LDPE bag along with silica gel as a desiccant. Vacuum was applied to this bag and then it was heat sealed. The vacuum-sealed pack was loaded on stability at 40±2° C. and 75±5% RH.

[4] = in the presence of oxygen; cited from earlier work

Total related substances [1]: 0.403 and 0.411 and 0.351
4-Hydroxy alitretinoin impurity ([2]; 3M/25 ± 2° C./60 ± 5% RH): 0.003
4-Oxo-alitretinoin impurity ([2]; 3M/25 ± 2° C./60 ± 5% RH): 0.003 and 0.002
5,6-Epoxy alitretinoin impurity ([2]; 3M/25 ± 2° C./60 ± 5% RH): 0.008 and 0.005
Total related substances ([2]; 3M/25 ± 2° C./60 ± 5% RH): 0.198 and 0.195 and 0.179
4-Hydroxy alitretinoin impurity ([2]; 6M/25 ± 2° C./60 ± 5% RH): 0.002 and 0.003
4-Oxo-alitretinoin impurity ([2]; 6M/25 ± 2° C./60 ± 5% RH): 0.004 and 0.003
5,6-Epoxy alitretinoin impurity ([2]; 6M/25 ± 2° C./60 ± 5% RH): 0.006 and 0.008 and 0.005
Total related substances ([2]; 6M/25 ± 2° C./60 ± 5% RH): 0.183 and 0.193 and 0.167
Change in oxidative impurities on storage ([2]; 25±2° C./60±5% RH (Table 2), in the presence of an oxygen absorber and a silica gel desiccant): no increase in oxidative impurities
4-Hydroxy alitretinoin impurity ([2]; Initial): 0.002
4-Oxo-alitretinoin impurity ([2]; Initial): 0.002 and 0.003
5,6-Epoxy alitretinoin impurity ([2]; Initial): 0.006 and 0.009
Total related substances ([2]; Initial): 0.165 and 0.189 and 0.173
4-Oxo-alitretinoin impurity ([3]; 1M/40 ± 2° C./75 ± 5% RH): 0.004 and 0.003
5,6-Epoxy alitretinoin impurity ([3]; 1M/40 ± 2° C./75 ± 5% RH): 0.008 and 0.006
Total related substances ([3]; 1M/40 ± 2° C./75 ± 5% RH): 0.173 and 0.182 and 0.160
4-Hydroxy alitretinoin impurity ([3]; 2M/40 ± 2° C./75 ± 5% RH): 0.003 and 0.002 and 0.004
4-Oxo-alitretinoin impurity ([3]; 2M/40 ± 2° C./75 ± 5% RH): 0.003 and 0.002
5,6-Epoxy alitretinoin impurity ([3]; 2M/40 ± 2° C./75 ± 5% RH): 0.010 and 0.008 and 0.007
Total related substances ([3]; 2M/40 ± 2° C./75 ± 5% RH): 0.191 and 0.192 and 0.180
4-Hydroxy alitretinoin impurity ([3]; 3M/40 ± 2° C./75 ± 5% RH): 0.003 and 0.002
4-Oxo-alitretinoin impurity ([3]; 3M/40 ± 2° C./75 ± 5% RH): 0.003 and 0.004
5,6-Epoxy alitretinoin impurity ([3]; 3M/40 ± 2° C./75 ± 5% RH): 0.008 and 0.010 and 0.006
Total related substances ([3]; 3M/40 ± 2° C./75 ± 5% RH): 0.192 and 0.205 and 0.177
4-Hydroxy alitretinoin impurity ([3]; 6M/40 ± 2° C./75 ± 5% RH): 0.002
4-Oxo-alitretinoin impurity ([3]; 6M/40 ± 2° C./75 ± 5% RH): 0.003 and 0.004
5,6-Epoxy alitretinoin impurity ([3]; 6M/40 ± 2° C./75 ± 5% RH): 0.006 and 0.007
Total related substances ([3]; 6M/40 ± 2° C./75 ± 5% RH): 0.175 and 0.188 and 0.167
Change in oxidative impurities on storage ([3]; 40±2° C./75±5% RH (Table 3), in the presence of an oxygen absorber and a silica gel desiccant): no increase in oxidative impurities
4-Hydroxy alitretinoin impurity ([3]; Initial): 0.002
4-Oxo-alitretinoin impurity ([3]; Initial): 0.002 and 0.003
5,6-Epoxy alitretinoin impurity ([3]; Initial): 0.006 and 0.009
Total related substances ([3]; Initial): 0.165 and 0.189 and 0.173
SMILES: CC1=C(/C=C/C(C)=C\C=C\C(C)=C\C(=O)O)C(C)(C)CCC1 [Alitretinoin, (2E,4E,6Z,8E)-3,7-dimethyl-9-(2,6,6-trimethyl-1-cyclohexenyl)-2,4,6,8-nonatraenoic acid]
Decomposition [4]: decomposition was extensive
